Laboratory results taken from ChEMBL document CHEMBL1201862, “PubChem BioAssay data set” (2004).
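Where inhibition never reached the appropriate level, the endpoint shown equals the highest concentration tested. Otherwise, values were interpolated linearly from a five-concentration, 48-hour dose response in 96-well plates. Abbreviation: GI50, concentration required for 50% inhibition of growth.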 Active and inactive are the calls of the source. No stated cut-off is given here; in the data, active = GI50 up to about 1.1 µM and inactive = higher.

What was measured:
Assay in all cases: growth of human tumour cells (NCI), 48 h
UACC-62 = tested on: UACC-62
NCI/ADR-RES = tested on: NCI/ADR-RES
DU-145 = tested on: DU-145
EKVX = tested on: EKVX
SF-295 = tested on: SF-295
NCI-H460 = tested on: NCI-H460
NCI-H23 = tested on: NCI-H23
LOX IMVI = tested on: LOX IMVI
MDA-MB-231 = tested on: MDA-MB-231
OVCAR-8 = tested on: OVCAR-8
NCI-H522 = tested on: NCI-H522
IGROV-1 = tested on: IGROV-1
U-251 = tested on: U-251
Hs-578T = tested on: Hs-578T
SN12C = tested on: SN12C
A498 = tested on: A498
SNB-75 = tested on: SNB-75
MDA-MB-435 = tested on: MDA-MB-435
HCC 2998 = tested on: HCC 2998
SR = tested on: SR
SK-OV-3 = tested on: SK-OV-3
K562 = tested on: K562
KM12 = tested on: KM12
SF-539 = tested on: SF-539
NCI-H226 = tested on: NCI-H226
MDA-N = tested on: MDA-N
HOP-62 = tested on: HOP-62
RXF 393 = tested on: RXF 393
SF-268 = tested on: SF-268
A549 = tested on: A549
MOLT-4 = tested on: MOLT-4
ACHN = tested on: ACHN
UO-31 = tested on: UO-31
SK-MEL-2 = tested on: SK-MEL-2
SK-MEL-5 = tested on: SK-MEL-5
COLO 205 = tested on: COLO 205
TK-10 = tested on: TK-10
UACC-257 = tested on: UACC-257
OVCAR-3 = tested on: OVCAR-3
T47D = tested on: T47D
SW-620 = tested on: SW-620
SNB-19 = tested on: SNB-19
HCT-15 = tested on: HCT-15
HL-60 = tested on: HL-60
HT-29 = tested on: HT-29
Malme-3M = tested on: Malme-3M
RPMI-8226 = tested on: RPMI-8226
786-0 = tested on: 786-0
PC-3 = tested on: PC-3
SK-MEL-28 = tested on: SK-MEL-28
HOP-92 = tested on: HOP-92
CAKI-1 = tested on: CAKI-1
OVCAR-5 = tested on: OVCAR-5
HCT-116 = tested on: HCT-116
M14 = tested on: M14
CCRF-CEM = tested on: CCRF-CEM
BT-549 = tested on: BT-549
OVCAR-4 = tested on: OVCAR-4
MCF7 = tested on: MCF7

With `Nc1nc(Cl)c(C=O)c(NCC2(CO)CCC2)n1` the GI50 (UACC-62) was 14.3 µM (inactive), the GI50 (NCI/ADR-RES) was 40 µM (inactive) and the GI50 (DU-145) was 31.1 µM (inactive). The GI50 (EKVX) was 17.6 µM (inactive), the GI50 (SF-295) was 22.8 µM (inactive) and the GI50 (NCI-H460) was 31 µM (inactive). The GI50 (NCI-H23) was 26.4 µM (inactive), the GI50 (LOX IMVI) was 12.4 µM (inactive) and the GI50 (MDA-MB-231) was 22.9 µM (inactive). For the same compound, the GI50 (OVCAR-8) was 15 µM (inactive), the GI50 (NCI-H522) was 3.56 µM (inactive) and the GI50 (IGROV-1) was 12.3 µM (inactive). The GI50 (U-251) was 15.2 µM (inactive), the GI50 (Hs-578T) was 22.2 µM (inactive) and the GI50 (SN12C) was 45.2 µM (inactive). For the same compound, the GI50 (A498) was 25.1 µM (inactive), the GI50 (SNB-75) was 24 µM (inactive) and the GI50 (MDA-MB-435) was 28.8 µM (inactive). The GI50 (HCC 2998) was 9.48 µM (inactive), the GI50 (SR) was 3.21 µM (inactive) and the GI50 (SK-OV-3) was 27.2 µM (inactive). The GI50 (K562) was 3.83 µM (inactive), the GI50 (KM12) was 43.1 µM (inactive) and the GI50 (SF-539) was 32.7 µM (inactive). For the same compound, the GI50 (NCI-H226) was 15.4 µM (inactive), the GI50 (MDA-N) was 21.3 µM (inactive) and the GI50 (HOP-62) was 25.4 µM (inactive). The GI50 (RXF 393) was 17.8 µM (inactive), the GI50 (SF-268) was 16.6 µM (inactive) and the GI50 (A549) was 91.6 µM (inactive). The GI50 (MOLT-4) was 18.3 µM (inactive), the GI50 (ACHN) was 37.8 µM (inactive) and the GI50 (UO-31) was 21.8 µM (inactive). For the same compound, the GI50 (SK-MEL-2) was 14.5 µM (inactive), the GI50 (SK-MEL-5) was 14.5 µM (inactive) and the GI50 (COLO 205) was 25.7 µM (inactive). For the same compound, the GI50 (TK-10) was > 100 µM (inactive), the GI50 (UACC-257) was 24.8 µM (inactive) and the GI50 (OVCAR-3) was 17.5 µM (inactive). For the same compound, the GI50 (T47D) was 33.7 µM (inactive), the GI50 (SW-620) was 28.2 µM (inactive) and the GI50 (SNB-19) was 17.1 µM (inactive). The GI50 (HCT-15) was 11.8 µM, the GI50 (HL-60) was 4.5 µM (inactive) and the GI50 (HT-29) was 31.4 µM (inactive). The GI50 (Malme-3M) was 43.1 µM (inactive), the GI50 (RPMI-8226) was 39.7 µM (inactive) and the GI50 (786-0) was 76 µM (inactive). For the same compound, the GI50 (PC-3) was 17.7 µM (inactive), the GI50 (SK-MEL-28) was 34.8 µM (inactive) and the GI50 (HOP-92) was 15.3 µM (inactive). The GI50 (CAKI-1) was 13.6 µM (inactive), the GI50 (OVCAR-5) was > 100 µM (inactive) and the GI50 (HCT-116) was 17.7 µM (inactive). The GI50 (M14) was 26.5 µM (inactive), the GI50 (CCRF-CEM) was 12.9 µM (inactive) and the GI50 (BT-549) was 28.6 µM (inactive). The GI50 (OVCAR-4) was 14.3 µM (inactive) and the GI50 (MCF7) was > 100 µM (inactive).
`Cc1c2cccc-2c(OCCO)cc2c1[nH]c1ccccc12` was tested, and the GI50 (UACC-62) was 2.67 µM (inactive), the GI50 (NCI/ADR-RES) was 3.03 µM (inactive) and the GI50 (DU-145) was 5.32 µM (inactive). The GI50 (EKVX) was 1.04 µM (active), the GI50 (SF-295) was 3.26 µM (inactive) and the GI50 (NCI-H460) was 3.61 µM (inactive). For the same compound, the GI50 (NCI-H23) was 2.54 µM (inactive), the GI50 (LOX IMVI) was 1.95 µM (inactive) and the GI50 (MDA-MB-231) was 1.98 µM (inactive). For the same compound, the GI50 (OVCAR-8) was 3.6 µM (inactive), the GI50 (NCI-H522) was 1.83 µM (inactive) and the GI50 (IGROV-1) was 1.88 µM (inactive). For the same compound, the GI50 (U-251) was 1.89 µM (inactive), the GI50 (Hs-578T) was 1.67 µM (inactive) and the GI50 (SN12C) was 2.09 µM (inactive). For the same compound, the GI50 (A498) was 11.8 µM (inactive), the GI50 (SNB-75) was 1.71 µM (inactive) and the GI50 (MDA-MB-435) was 3.53 µM (inactive). The GI50 (HCC 2998) was 3.15 µM (inactive), the GI50 (SR) was 5.27 µM (inactive) and the GI50 (SK-OV-3) was 3.27 µM (inactive). The GI50 (K562) was 3.1 µM (inactive), the GI50 (KM12) was 2.58 µM (inactive) and the GI50 (SF-539) was 1.74 µM (inactive). The GI50 (NCI-H226) was 2.96 µM (inactive), the GI50 (MDA-N) was 2.76 µM (inactive) and the GI50 (HOP-62) was 3.42 µM (inactive). The GI50 (RXF 393) was 2.37 µM (inactive), the GI50 (SF-268) was 1.65 µM (inactive) and the GI50 (A549) was 3.15 µM (inactive). For the same compound, the GI50 (MOLT-4) was 2.99 µM (inactive), the GI50 (ACHN) was 1.64 µM (inactive) and the GI50 (UO-31) was 1.5 µM (inactive). For the same compound, the GI50 (SK-MEL-2) was 3.72 µM (inactive), the GI50 (SK-MEL-5) was 1.34 µM (inactive) and the GI50 (COLO 205) was 1.87 µM (inactive). The GI50 (TK-10) was 4.06 µM (inactive), the GI50 (UACC-257) was 3.15 µM (inactive) and the GI50 (OVCAR-3) was 1.81 µM (inactive). For the same compound, the GI50 (T47D) was 3.24 µM (inactive), the GI50 (SW-620) was 3.52 µM (inactive) and the GI50 (SNB-19) was 8.57 µM (inactive). For the same compound, the GI50 (HCT-15) was 3.16 µM, the GI50 (HL-60) was 2.16 µM (inactive) and the GI50 (HT-29) was 3.52 µM (inactive). The GI50 (Malme-3M) was 1.73 µM (inactive), the GI50 (RPMI-8226) was 3 µM (inactive) and the GI50 (786-0) was 2.24 µM (inactive). For the same compound, the GI50 (PC-3) was 2.72 µM (inactive), the GI50 (SK-MEL-28) was 4.49 µM (inactive) and the GI50 (HOP-92) was 2.75 µM (inactive). For the same compound, the GI50 (CAKI-1) was 1.59 µM (inactive), the GI50 (OVCAR-5) was 2.26 µM (inactive) and the GI50 (HCT-116) was 3.01 µM (inactive). For the same compound, the GI50 (M14) was 1.97 µM (inactive), the GI50 (CCRF-CEM) was 4.75 µM (inactive) and the GI50 (BT-549) was 2.92 µM (inactive). For the same compound, the GI50 (OVCAR-4) was 3.43 µM (inactive) and the GI50 (MCF7) was 2.69 µM (inactive).
